From patent US10588316B2 (priority 2015, dated 2020)
Several values for one entry are separate records, joined by “and”; a condition that tells them apart may be missing. Equal values may be shown once. Read-outs that look alike come from different tables or passages of the source.

Tests used:
wheat scab [1] = type: in vivo; settings: Preparation 100 g/mu; Jinggangmycin 20, Tebuconazole 0 g ai. agent/mu
powdery mildew [2] = type: in vivo, wheat; settings: in vivo
[3] = test system: Fusarium graminearum and Fusarium asiaticum; experiment: organism not typed; type: cell-based; settings: read-out: inhibitory effect on the growth of the two types of Fusaria
powdery mildew [4] = type: in vivo, wheat; settings: in vivo; remark: listed apart in the source
leaf blight [5] = type: in vivo, wheat; settings: in vivo
wheat scab [6] = type: in vivo
powdery mildew fungus = test system: powdery mildew fungus; design: species or system wheat; settings: in vivo
leaf rust fungus = test system: leaf rust fungus; design: species or system wheat; settings: in vivo
rust [7] = test system: rust; design: species or system barley; settings: in vivo
wheat scab [8] = type: in vivo; settings: Preparation 100 (mL/mu); Jinggangmycin 20, Tebuconazole 0 g ai. agent/mu
rust [9] = type: in vivo, wheat; settings: in vivo
powdery mildew [10] = type: in vivo, wheat; settings: in vivo; remark: listed apart in the source
rust [11] = type: in vivo, wheat; settings: in vivo; remark: listed apart in the source
leaf blight [12] = test system: leaf blight; design: species or system wheat; settings: in vivo
[13] = type: in vivo, wheat; settings: in vivo
wheat scab [14] = type: in vivo; remark: listed apart in the source
[15] = type: in vivo, wheat; settings: in vivo; remark: listed apart in the source
wheat scab [16] = type: in vivo; remark: listed apart in the source
powdery mildew [17] = type: in vivo, wheat; settings: in vivo; remark: listed apart in the source
leaf blight [18] = type: in vivo, wheat; settings: in vivo; remark: listed apart in the source
rust [19] = type: in vivo, wheat; settings: in vivo; remark: listed apart in the source
leaf blight [20] = type: in vivo, wheat; settings: in vivo; remark: listed apart in the source
rust [21] = test system: rust; design: species or system wheat; settings: in vivo
powdery mildew [22] = type: in vivo, wheat; settings: in vivo; remark: listed apart in the source
Fusarium asiaticum = experiment: microbe, parasite or virus in culture; type: cell-based
rust [23] = type: in vivo, wheat; settings: in vivo; remark: listed apart in the source
wheat scab [24] = type: in vivo; remark: listed apart in the source
[25] = test system: carbendazim-resistant Fusarium asiaticum; experiment: microbe, parasite or virus in culture; type: cell-based; settings: for inhibition at 1 µg/mL / inhibition at 10 µg/mL / inhibition at 100 µg/mL / inhibition at 1000 µg/mL / inhibition at 10000 µg/mL: Fusarium asiaticum, read-out: DON Biosynthesis Inhibition Rate
Fusarium graminearum = experiment: microbe, parasite or virus in culture; type: cell-based; settings: for Average Fungal Colony Diameter F.g: sensitive strains
Tri5 gene = type: cell-based, Fusarium asiaticum

**Q.** Which results are given for `OCC1=CC(N[C@H]2C[C@H](CO)[C@@H](OC3O[C@H](CO)[C@@H](O)[C@H](O)[C@H]3O)C(O)[C@H]2O)[C@H](O)[C@@H](O)C1O` (stereo partly shown) [Jinggangmycin, jinggangmycin A]?
**A.** Disease Index Prevention Effect % Head Blight (wheat scab [1]): 40.2%; Disease Index Prevention Effect % Powdery Mildew (powdery mildew [2]): 10.6%; inhibition at 50 µg/mL [3]: 6.5 to 7.8%; Disease Index Prevention Effect % Powdery Mildew (powdery mildew [4]): 7.3% and 4.4% and 4.5% and 0%; Disease Index Prevention Effect % Leaf Blight (leaf blight [5]): 7.8%; Disease Index Prevention Effect % Head Blight (wheat scab [6]; Jinggangmycin 6 g ai. agent/mu): 0%; Disease Index Prevention Effect % Head Blight (wheat scab [6]; Jinggangmycin 9 g ai. agent/mu): 17.6%; Disease Index Prevention Effect % Head Blight (wheat scab [6]; Jinggangmycin 15 g ai. agent/mu): 28.3%; Disease Index Prevention Effect % Head Blight (wheat scab [6]; Jinggangmycin 21 g ai. agent/mu): 35.4%; Incidence Prevention Effect % Powdery Mildew (powdery mildew fungus): 0% and 6.5%; Incidence Prevention Effect % Rust (leaf rust fungus): 0% and 4.5%; Disease Index Prevention Effect % Rust (rust [7]): 0%; Disease Index Prevention Effect % Head Blight (wheat scab [8]): 34.2%; Disease Index Prevention Effect % Rust (rust [9]): 6.5%; Disease Index Prevention Effect % Powdery Mildew (powdery mildew [10]): 8.6% and 6.6% and 3% and 1.8%; Disease Index Prevention Effect % Rust (rust [11]): 6.8% and 6.5% and 0%; Disease Index Prevention Effect % Leaf Blight (leaf blight [12]): 8.5% and 7.9% and 0%; Thousand Kernel Weight [13]: 37.5 g and 38.6 g and 37.6 g; Disease Index Prevention Effect % Head Blight (wheat scab [14]; Preparation 30 g/mu, Jinggangmycin 6 g ai. agent/mu): 7.4%; Disease Index Prevention Effect % Head Blight (wheat scab [14]; Preparation 45 g/mu, Jinggangmycin 9 g ai. agent/mu): 9.4%; Disease Index Prevention Effect % Head Blight (wheat scab [14]; Preparation 60 g/mu, Jinggangmycin 12 g ai. agent/mu): 10.2%; Disease Index Prevention Effect % Head Blight (wheat scab [14]; Preparation 75 g/mu, Jinggangmycin 15 g ai. agent/mu): 34.2%; Thousand Kernel Weight [15]: 38.5 g and 40.1 g and 37.8 g and 41.5 g; Disease Index Prevention Effect % Head Blight (wheat scab [16]; Preparation 15 g/mu, Jinggangmycin 3 g ai. agent/mu): 0%; Disease Index Prevention Effect % Head Blight (wheat scab [16]; Preparation 37.5 g/mu, Jinggangmycin 7.5 g ai. agent/mu): 24.2%; Disease Index Prevention Effect % Head Blight (wheat scab [16]; Preparation 50 g/mu, Jinggangmycin 10 g ai. agent/mu): 32.4%; Disease Index Prevention Effect % Powdery Mildew (powdery mildew [17]): 10.6%; Disease Index Prevention Effect % Leaf Blight (leaf blight [18]): 7.8%; Disease Index Prevention Effect % Rust (rust [19]): 8.9% and 0%; Disease Index Prevention Effect % Leaf Blight (leaf blight [20]): 8.6% and 8.8% and 5.8%; Disease Index Prevention Effect % Rust (rust [21]): 5.1% and 3.6% and 0%; Disease Index Prevention Effect % Powdery Mildew (powdery mildew [22]): 8.5% and 0%; Average Fungal Colony Diameter F.a (Fusarium asiaticum): 76.3 mm and 75.6 mm and 69.4 mm; inhibition at 50 µg/mL (Fusarium asiaticum; Fusarium asiaticum, read-out: Growth Inhibition Rate F.a): 7.8%; Disease Index Prevention Effect % Rust (rust [23]): 6.5%; Disease Index Prevention Effect % Head Blight (wheat scab [24]; Jinggangmycin 0.5 g ai. agent/mu): 0.0%; Disease Index Prevention Effect % Head Blight (wheat scab [24]; Jinggangmycin 1.0 g ai. agent/mu): 0.0%; Disease Index Prevention Effect % Head Blight (wheat scab [24]; Jinggangmycin 1.3 g ai. agent/mu): 0.0%; Disease Index Prevention Effect % Head Blight (wheat scab [24]; Jinggangmycin 2.5 g ai. agent/mu): 0.0%; Disease Index Prevention Effect % Head Blight (wheat scab [24]; Jinggangmycin 5.0 g ai. agent/mu): 0.0%; Disease Index Prevention Effect % Head Blight (wheat scab [24]; Jinggangmycin 8.0 g ai. agent/mu): 17.9%; Disease Index Prevention Effect % Head Blight (wheat scab [24]; Jinggangmycin 14.0 g ai. agent/mu): 23.7%; Disease Index Prevention Effect % Head Blight (wheat scab [24]; Jinggangmycin 16.0 g ai. agent/mu): 27.8%; Disease Index Prevention Effect % Head Blight (wheat scab [24]; Jinggangmycin 28.0 g ai. agent/mu): 29.6%; inhibition at 1 µg/mL ([25]; 168 h): 28.6%; inhibition at 10 µg/mL ([25]; 168 h): 35.5%; inhibition at 100 µg/mL ([25]; 168 h): 45.2%; inhibition at 1000 µg/mL ([25]; 168 h): 65.5%; inhibition at 10000 µg/mL ([25]; 168 h): 75.9%; inhibition at 1 µg/mL ([25]; 336 h): 1.7%; inhibition at 10 µg/mL ([25]; 336 h): 7.87%; inhibition at 100 µg/mL ([25]; 336 h): 29.9%; inhibition at 1000 µg/mL ([25]; 336 h): 57%; inhibition at 10000 µg/mL ([25]; 336 h): 75.4%; Toxin Production Capability of Hyphae ([25]; Jinggangmycin 1 μg/ml, 7 days of culture): 62.82 μgDON/g by dry weight of hyphae; Toxin Production Capability of Hyphae ([25]; Jinggangmycin 1 μg/ml, 14 days of culture): 51.43 μgDON/g by dry weight of hyphae; Toxin Production Capability of Hyphae ([25]; Jinggangmycin 10 μg/ml, 7 days of culture): 56.76 μgDON/g by dry weight of hyphae; Toxin Production Capability of Hyphae ([25]; Jinggangmycin 10 μg/ml, 14 days of culture): 48.20 μgDON/g by dry weight of hyphae; Toxin Production Capability of Hyphae ([25]; Jinggangmycin 100 μg/ml, 7 days of culture): 48.23 μgDON/g by dry weight of hyphae; Toxin Production Capability of Hyphae ([25]; Jinggangmycin 100 μg/ml, 14 days of culture): 36.68 μgDON/g by dry weight of hyphae; Toxin Production Capability of Hyphae ([25]; Jinggangmycin 1000 μg/ml, 7 days of culture): 30.35 μgDON/g by dry weight of hyphae; Toxin Production Capability of Hyphae ([25]; Jinggangmycin 1000 μg/ml, 14 days of culture): 22.52 μgDON/g by dry weight of hyphae; Toxin Production Capability of Hyphae ([25]; Jinggangmycin 10000 μg/ml, 7 days of culture): 21.23 μgDON/g by dry weight of hyphae; Toxin Production Capability of Hyphae ([25]; Jinggangmycin 10000 μg/ml, 14 days of culture): 12.85 μgDON/g by dry weight of hyphae; inhibition at 50 µg/mL (Fusarium graminearum; Fusarium graminearum, read-out: Growth Inhibition Rate F.g): 6.6%; Average Fungal Colony Diameter F.g (Fusarium graminearum; Jinggangmycin A 0.1 μg/mL): 76.3 mm; Average Fungal Colony Diameter F.g (Fusarium graminearum; Jinggangmycin A 1.0 μg/mL): 76.2 mm; Average Fungal Colony Diameter F.g (Fusarium graminearum; Jinggangmycin A 10.0 μg/mL): 75.4 mm; Average Fungal Colony Diameter F.g (Fusarium graminearum; Jinggangmycin A 50.0 μg/mL): 70.3 mm; Rate of Inhibition on Relative Expression Level of Tri5 Gene (Tri5 gene): 59% and 66% and 84% and 87% and 90%
